From US20220023258A1, “METHODS OF TREATING CONDITIONS RELATED TO THE S1P1 RECEPTOR” (Arena Pharmaceuticals, Inc., priority 2018, published 2022)
Structures can show the parent of a compound that is named as a salt.

Columns and labels:
healthy adult subjects = test: Multiple ascending dose study: heart rate, blood pressure, QTc; format: in vivo, human; conditions: for Maximum post-dose QTc, Change from Baseline Mean / Maximum post-dose QTc, Change from Baseline Median / Maximum post-dose QTc, Change from Baseline Min, Max / Maximum post-dose QTc, On Treatment Mean (SD): Day 1 to Day 23; for Minimum post-dose Diastolic BP, Change from Baseline Mean / Minimum post-dose Diastolic BP, Change from Baseline Median / Minimum post-dose Diastolic BP, Change from Baseline Min, Max / Minimum post-dose Diastolic BP, On Treatment Mean (SD) / Minimum post-dose Heart Rate, Change from Baseline Mean / Minimum post-dose Heart Rate, Change from Baseline Median / Minimum post-dose Heart Rate, Change from Baseline Min, Max / Minimum post-dose Heart Rate, On Treatment Mean (SD) / Minimum post-dose Systolic BP, Change from Baseline Mean / Minimum post-dose Systolic BP, Change from Baseline Median / Minimum post-dose Systolic BP, Change from Baseline Min, Max / Minimum post-dose Systolic BP, On Treatment Mean: Day 1 to Day 28
Protocol: A randomized, double-blind, placebo-controlled, sequential, ascending, multiple dose study to assess the safety, tolerability, and pharmacokinetics of the L-arginine salt of Compound 1 administered to healthy adult subjects was conducted. This study was designed to evaluate the safety, tolerability, pharmacokinetics, and pharmacodynamics of the L-arginine salt of Compound 1.
Cohort 1 was dosed with 0.7 mg (by administering two 0.35 mg formulations) for 21 days. Cohort 2 was dosed with 1.35 mg (by administering both a 0.35 mg formulation and a 1 mg formulation) for 21 days. Cohort 3 was dosed with 2.0 mg for 21 days. Cohort 4 was dosed with 0.35 mg for 7 days and then with 2.0 mg for 14 days. Cohort 5 was dosed with 0.5 for 7 days and then with 3.0 mg (by administering both a 1 mg formulation and a 2 mg formulation) for 14 days.
The following safety assessments were conducted: physical examinations with ophthalmoscopy, clinical laboratory tests (serum chemistry, coagulation, and urinalysis), vital signs, continuous telemetry (12 lead ECG), safety ECGs, pulmonary function testing (PFT), serum protein electrophoresis (SPEP) and serum immunoelectrophoresis (IEP), and adverse event reporting.

[1] = system: patients with ulcerative colitis; test: Fecal calprotectin and C-reactive protein in ulcerative colitis study; format: in vivo, human
Protocol: The modified Mayo Clinic score (modified MCS) included endoscopic, rectal bleeding (RB), and stool frequency (SF) subscores. […] Endoscopic improvement was defined as a subscore ≤1. […] Comparisons between subgroups were assessed with a Wilcoxon rank-sum test (2-sided P values). Analysis of correlation between variables was conducted using the Spearman's rank coefficient (2-sided P values).

[2] = 0.35 mg for 7 days then 2.0 mg for 14 days
[3] = 0.5 mg for 7 days then 3.0 mg for 14 days

O=C(O)C[C@H]1CCc2c1[nH]c1ccc(OCc3ccc(C4CCCC4)c(C(F)(F)F)c3)cc21 [L-arginine salt of Compound 1]
Maximum post-dose QTc, Change from Baseline Mean (healthy adult subjects; [2]): −0.10 MS | Maximum post-dose QTc, Change from Baseline Median (healthy adult subjects; [2]): 0.50 MS | Maximum post-dose QTc, Change from Baseline Min, Max (healthy adult subjects; [2]): −19.00 to 17.00 MS | Maximum post-dose QTc, On Treatment Mean (SD) (healthy adult subjects; [2]): 411.10 (19.88) MS | Maximum post-dose QTc, Change from Baseline Mean (healthy adult subjects; [3]): 5.60 MS | Maximum post-dose QTc, Change from Baseline Median (healthy adult subjects; [3]): 5.00 MS | Maximum post-dose QTc, Change from Baseline Min, Max (healthy adult subjects; [3]): −5.00 to 15.00 MS | Maximum post-dose QTc, On Treatment Mean (SD) (healthy adult subjects; [3]): 425.10 (13.90) MS | Maximum post-dose QTc, Change from Baseline Mean (healthy adult subjects; 0.7 mg for 21 days): 3.60 MS | Maximum post-dose QTc, Change from Baseline Median (healthy adult subjects; 0.7 mg for 21 days): 3.50 MS | Maximum post-dose QTc, Change from Baseline Min, Max (healthy adult subjects; 0.7 mg for 21 days): −8.00 to 16.00 MS | Maximum post-dose QTc, On Treatment Mean (SD) (healthy adult subjects; 0.7 mg for 21 days): 418.40 (16.56) MS | Maximum post-dose QTc, Change from Baseline Mean (healthy adult subjects; 1.35 mg for 21 days): 8.20 MS | Maximum post-dose QTc, Change from Baseline Median (healthy adult subjects; 1.35 mg for 21 days): 6.00 MS | Maximum post-dose QTc, Change from Baseline Min, Max (healthy adult subjects; 1.35 mg for 21 days): −5.00 to 25.00 MS | Maximum post-dose QTc, On Treatment Mean (SD) (healthy adult subjects; 1.35 mg for 21 days): 423.60 (16.14) MS | Maximum post-dose QTc, Change from Baseline Mean (healthy adult subjects; 2.0 mg for 21 days): 4.00 MS | Maximum post-dose QTc, Change from Baseline Median (healthy adult subjects; 2.0 mg for 21 days): 4.50 MS | Maximum post-dose QTc, Change from Baseline Min, Max (healthy adult subjects; 2.0 mg for 21 days): −8.00 to 13.00 MS | Maximum post-dose QTc, On Treatment Mean (SD) (healthy adult subjects; 2.0 mg for 21 days): 421.20 (10.61) MS | Minimum post-dose Diastolic BP, Change from Baseline Mean (healthy adult subjects; [2]): −7.90 mmHg | Minimum post-dose Diastolic BP, Change from Baseline Median (healthy adult subjects; [2]): −6.00 mmHg | Minimum post-dose Diastolic BP, Change from Baseline Min, Max (healthy adult subjects; [2]): −19.00 to −1.00 mmHg | Minimum post-dose Diastolic BP, On Treatment Mean (SD) (healthy adult subjects; [2]): 50.80 (5.65) mmHg | Minimum post-dose Heart Rate, Change from Baseline Mean (healthy adult subjects; [2]): −10.60 BPM | Minimum post-dose Heart Rate, Change from Baseline Median (healthy adult subjects; [2]): −7.00 BPM | Minimum post-dose Heart Rate, Change from Baseline Min, Max (healthy adult subjects; [2]): −35.00 to 3.00 BPM | Minimum post-dose Heart Rate, On Treatment Mean (SD) (healthy adult subjects; [2]): 52.00 (4.74) BPM | Minimum post-dose Systolic BP, Change from Baseline Mean (healthy adult subjects; [2]): −13.00 mmHg | Minimum post-dose Systolic BP, Change from Baseline Median (healthy adult subjects; [2]): −13.00 mmHg | Minimum post-dose Systolic BP, Change from Baseline Min, Max (healthy adult subjects; [2]): −28.00 to 0.00 mmHg | Minimum post-dose Systolic BP, On Treatment Mean (healthy adult subjects; [2]): 94.30 mmHg | Minimum post-dose Diastolic BP, Change from Baseline Mean (healthy adult subjects; [3]): −6.30 mmHg | Minimum post-dose Diastolic BP, Change from Baseline Median (healthy adult subjects; [3]): −7.00 mmHg | Minimum post-dose Diastolic BP, Change from Baseline Min, Max (healthy adult subjects; [3]): −13.00 to 3.00 mmHg | Minimum post-dose Diastolic BP, On Treatment Mean (SD) (healthy adult subjects; [3]): 50.20 (4.21) mmHg | Minimum post-dose Heart Rate, Change from Baseline Mean (healthy adult subjects; [3]): −7.30 BPM | Minimum post-dose Heart Rate, Change from Baseline Median (healthy adult subjects; [3]): −6.50 BPM | Minimum post-dose Heart Rate, Change from Baseline Min, Max (healthy adult subjects; [3]): −14.00 to −2.00 BPM | Minimum post-dose Heart Rate, On Treatment Mean (SD) (healthy adult subjects; [3]): 53.80 (4.73) BPM | Minimum post-dose Systolic BP, Change from Baseline Mean (healthy adult subjects; [3]): −7.80 mmHg | Minimum post-dose Systolic BP, Change from Baseline Median (healthy adult subjects; [3]): −5.00 mmHg | Minimum post-dose Systolic BP, Change from Baseline Min, Max (healthy adult subjects; [3]): −18.00 to 5.00 mmHg | Minimum post-dose Systolic BP, On Treatment Mean (healthy adult subjects; [3]): 93.20 mmHg | Minimum post-dose Diastolic BP, Change from Baseline Mean (healthy adult subjects; 0.7 mg for 21 days): −6.10 mmHg | Minimum post-dose Diastolic BP, Change from Baseline Median (healthy adult subjects; 0.7 mg for 21 days): −6.00 mmHg | Minimum post-dose Diastolic BP, Change from Baseline Min, Max (healthy adult subjects; 0.7 mg for 21 days): −16.00 to 2.00 mmHg | Minimum post-dose Diastolic BP, On Treatment Mean (SD) (healthy adult subjects; 0.7 mg for 21 days): 56.00 (8.31) mmHg | Minimum post-dose Heart Rate, Change from Baseline Mean (healthy adult subjects; 0.7 mg for 21 days): −5.50 BPM | Minimum post-dose Heart Rate, Change from Baseline Median (healthy adult subjects; 0.7 mg for 21 days): −5.00 BPM | Minimum post-dose Heart Rate, Change from Baseline Min, Max (healthy adult subjects; 0.7 mg for 21 days): −12.00 to −1.00 BPM | Minimum post-dose Heart Rate, On Treatment Mean (SD) (healthy adult subjects; 0.7 mg for 21 days): 54.20 (4.05) BPM | Minimum post-dose Systolic BP, Change from Baseline Mean (healthy adult subjects; 0.7 mg for 21 days): −9.70 mmHg | Minimum post-dose Systolic BP, Change from Baseline Median (healthy adult subjects; 0.7 mg for 21 days): −9.50 mmHg | Minimum post-dose Systolic BP, Change from Baseline Min, Max (healthy adult subjects; 0.7 mg for 21 days): −16.00 to −1.00 mmHg | Minimum post-dose Systolic BP, On Treatment Mean (healthy adult subjects; 0.7 mg for 21 days): 96.10 mmHg | Minimum post-dose Diastolic BP, Change from Baseline Mean (healthy adult subjects; 1.35 mg for 21 days): −5.20 mmHg | Minimum post-dose Diastolic BP, Change from Baseline Median (healthy adult subjects; 1.35 mg for 21 days): −7.50 mmHg | Minimum post-dose Diastolic BP, Change from Baseline Min, Max (healthy adult subjects; 1.35 mg for 21 days): −11.00 to 6.00 mmHg | Minimum post-dose Diastolic BP, On Treatment Mean (SD) (healthy adult subjects; 1.35 mg for 21 days): 53.70 (4.03) mmHg | Minimum post-dose Heart Rate, Change from Baseline Mean (healthy adult subjects; 1.35 mg for 21 days): −6.20 BPM | Minimum post-dose Heart Rate, Change from Baseline Median (healthy adult subjects; 1.35 mg for 21 days): −5.00 BPM | Minimum post-dose Heart Rate, Change from Baseline Min, Max (healthy adult subjects; 1.35 mg for 21 days): −18.00 to 3.00 BPM | Minimum post-dose Heart Rate, On Treatment Mean (SD) (healthy adult subjects; 1.35 mg for 21 days): 54.40 (4.09) BPM | Minimum post-dose Systolic BP, Change from Baseline Mean (healthy adult subjects; 1.35 mg for 21 days): −8.90 mmHg | Minimum post-dose Systolic BP, Change from Baseline Median (healthy adult subjects; 1.35 mg for 21 days): −8.00 mmHg | Minimum post-dose Systolic BP, Change from Baseline Min, Max (healthy adult subjects; 1.35 mg for 21 days): −22.00 to 3.00 mmHg | Minimum post-dose Systolic BP, On Treatment Mean (healthy adult subjects; 1.35 mg for 21 days): 100.10 mmHg | Minimum post-dose Diastolic BP, Change from Baseline Mean (healthy adult subjects; 2.0 mg for 21 days): −11.20 mmHg | Minimum post-dose Diastolic BP, Change from Baseline Median (healthy adult subjects; 2.0 mg for 21 days): −9.00 mmHg | Minimum post-dose Diastolic BP, Change from Baseline Min, Max (healthy adult subjects; 2.0 mg for 21 days): −21.00 to −4.00 mmHg | Minimum post-dose Diastolic BP, On Treatment Mean (SD) (healthy adult subjects; 2.0 mg for 21 days): 45.30 (7.42) mmHg | Minimum post-dose Heart Rate, Change from Baseline Mean (healthy adult subjects; 2.0 mg for 21 days): −8.30 BPM | Minimum post-dose Heart Rate, Change from Baseline Median (healthy adult subjects; 2.0 mg for 21 days): −7.50 BPM | Minimum post-dose Heart Rate, Change from Baseline Min, Max (healthy adult subjects; 2.0 mg for 21 days): −16.00 to −3.00 BPM | Minimum post-dose Heart Rate, On Treatment Mean (SD) (healthy adult subjects; 2.0 mg for 21 days): 51.00 (4.78) BPM | Minimum post-dose Systolic BP, Change from Baseline Mean (healthy adult subjects; 2.0 mg for 21 days): −9.80 mmHg | Minimum post-dose Systolic BP, Change from Baseline Median (healthy adult subjects; 2.0 mg for 21 days): −9.00 mmHg | Minimum post-dose Systolic BP, Change from Baseline Min, Max (healthy adult subjects; 2.0 mg for 21 days): −18.00 to −4.00 mmHg | Minimum post-dose Systolic BP, On Treatment Mean (healthy adult subjects; 2.0 mg for 21 days): 90.80 mmHg | decrease in FC versus placebo across the study ([1]; 1 mg, did not reach statistical significance, P=0.08): 0.71 | decrease in CRP compared with placebo across the study ([1]; 1 mg, mixed-model for repeat measures, P=0.02): 0.72 | median FC at week 12, patients who did not achieve remission ([1]; 2 mg): 1129 µg/g | median FC at week 12, patients who achieved remission ([1]; 2 mg, P<0.001 vs no remission): 62.0 µg/g | decrease in FC compared with placebo across the study ([1]; 2 mg, mixed-model for repeat measures, P<0.001): 0.42 | decrease in CRP compared with placebo across the study ([1]; 2 mg, mixed-model for repeat measures, P=0.01): 0.70 | time at which decreases in FC and CRP levels versus placebo were first observed ([1]; 2 mg, sustained through week 12): 4 week
